Measurements published in US9999222B2, “Herbicidal combination comprising azines” (BASF SE, priority 2014, dated 2018).
Where “and” joins values, the source holds several entries; their conditions need not be identical. Equal entries are not always repeated. Where two headings read alike, the source gives them in different places.

Legend:
Assay in all cases: Greenhouse test, pre-emergence treatment
[1] = test system: GERPU; type: in vivo, Geranium pusillum; details: Geranium pusillum, pre-emergence, 480 h, pre-emergence, read-out: observed % activity 20 DAT
In short: (§1)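 Seeds were sown in loamy sand with about 3.0% humus, and compounds in water were sprayed immediately after sowing, alone or as combinations formulated as 10% emulsion concentrates. Plants grew under hoods until rooted, at 10-25 °C or 20-35 °C by species, for 2 to 4 weeks. Damage was scored 0-100 (100 = no emergence or complete destruction), and Colby expected values were E=X+Y−(X·Y/100).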

[2] = test system: GALAP; type: in vivo, Galium aparine; details: Galium aparine, 480 h, pre-emergence
In short: as §1

[3] = test system: LOLMU; type: in vivo, Lolium multiflorum; details: Lolium multiflorum, pre-emergence, 480 h; for inhibition at 12.5 g/ha: use rate 12.5 g ai/ha; for inhibition at 25 g/ha: use rate 25 g ai/ha
In short: as §1

[4] = test system: SORHA; type: in vivo, Sorghum halepense; details: Sorghum halepense, pre-emergence, 480 h, 20 DAT, read-out: observed % activity
[5] = test system: SETFA; type: in vivo, Setaria faberi; details: Setaria faberi, 480 h, SETFA, 20 DAT, read-out: observed % activity 20 DAT
In short: as §1

[6] = test system: BRADC; type: in vivo, Brachiaria decumbens; details: pre-emergence
In short: as §1

[7] = test system: PHACA; type: in vivo, Phalaris canariensis; details: Phalaris canariensis, pre-emergence, 480 h; for inhibition at 12.5 g/ha: use rate 12.5 g ai/ha; for inhibition at 25 g/ha: use rate 25 g ai/ha
In short: as §1

[8] = test system: IPOHE; type: in vivo, Ipomoea hederacea; details: Ipomoea hederacea, 480 h, 24 g ai/ha, read-out: observed % activity 20 DAT
In short: as §1

[9] = test system: CENCY; type: in vivo, Centaurea cyanus; details: 24 g ai/ha
[10] = test system: COMBE; type: in vivo, Commelina benghalensis; details: Commelina benghalensis, 480 h; pre-emergence, 12 g ai/ha; read-out: observed % activity 20 DAT
In short: as §1

[11] = test system: EPHHL; type: in vivo, Euphorbia heterophylla; details: Euphorbia heterophylla, pre-emergence, 480 h, pre-emergence, read-out: observed % activity 20 DAT
In short: as §1

[12] = test system: AVEFA; type: in vivo, Avena fatua; details: pre-emergence
In short: as §1

[13] = test system: POLCO; type: in vivo, Polygonum convolvulus; details: Fallopia convolvulus, 480 h, pre-emergence; for inhibition at 12.5 g/ha: use rate 12.5 g ai/ha
In short: as §1

[14] = test system: KCHSC; type: in vivo, Kochia scoparia; details: Bassia scoparia, 480 h, pre-emergence
In short: as §1

[15] = test system: ALOMY; type: in vivo, Alopecurus myosuroides; details: Alopecurus myosuroides, pre-emergence, 480 h; for inhibition at 12.5 g/ha: use rate 12.5 g ai/ha; for inhibition at 25 g/ha: use rate 25 g ai/ha
In short: as §1

[16] = test system: ECHCG; type: in vivo, Echinocloa crus-galli; details: Echinochloa crus-galli, 480 h, read-out: observed % activity 20 DAT; for inhibition at 12.5 g/ha: use rate 12.5 g ai/ha
In short: as §1

[17] = 12 g ai/ha, read-out: observed % activity 20 DAT
[18] = 24 g ai/ha, read-out: observed % activity 20 DAT
[19] = 12 g ai/ha, 20 DAT, read-out: observed % activity
[20] = 24 g ai/ha, 20 DAT, read-out: observed % activity
[21] = 6 g ai/ha, 20 DAT, read-out: observed % activity
[22] = 6 g ai/ha, read-out: observed % activity 20 DAT
[23] = 8 g ai/ha, read-out: observed % activity 20 DAT
[24] = LOLMU, 20 DAT, read-out: observed % activity 20 DAT
[25] = read-out: observed % activity 20 DAT
[26] = PHACA, 20 DAT, read-out: observed % activity 20 DAT
[27] = ALOMY, 20 DAT, read-out: observed % activity 20 DAT

Compound: Cn1nc(C(F)(F)F)c(CS(=O)(=O)C2=NOC(C)(C)C2)c1OC(F)F [Pyroxasulfone, pyroxasulfone]
- pest or weed control at 12 g/ha ([1]; 12 g ai/ha): 10%
- pest or weed control at 24 g/ha ([1]; 24 g ai/ha): 20%
- pest or weed control at 12 g/ha [2, 17]: 35%
- pest or weed control at 24 g/ha [2, 18]: 50%
- inhibition at 12 g/ha [2, 19]: 75%
- inhibition at 24 g/ha [2, 20]: 75%
- inhibition at 6 g/ha [3, 21]: 35%
- inhibition at 24 g/ha [3, 20]: 98%
- pest or weed control at 6 g/ha [3, 22]: 70%
- pest or weed control at 8 g/ha [3, 23]: 50%
- pest or weed control at 12 g/ha [3, 17]: 80%
- pest or weed control at 24 g/ha [3, 18]: 95%
- inhibition at 12.5 g/ha [3, 24]: 30%
- inhibition at 25 g/ha [3, 24]: 40%
- inhibition at 12.5 g/ha [3, 25]: 30%
- inhibition at 25 g/ha [3, 25]: 40%
- inhibition at 6 g/ha ([4]; 6 g ai/ha): 75%
- inhibition at 24 g/ha ([4]; 24 g ai/ha): 98%
- inhibition at 12.5 g/ha ([5]; use rate 12.5 g ai/ha): 80%
- inhibition at 25 g/ha ([5]; use rate 25 g ai/ha): 95%
- inhibition at 6 g/ha ([6]; Urochloa decumbens, 480 h, 6 g ai/ha, 20 DAT, read-out: observed % activity): 53%
- pest or weed control at 6 g/ha ([6]; Urochloa decumbens, 480 h, 6 g ai/ha, read-out: observed % activity 20 DAT): 35%
- pest or weed control at 12 g/ha ([6]; Urochloa decumbens, 480 h, 12 g ai/ha, read-out: observed % activity 20 DAT): 30%
- pest or weed control at 16 g/ha ([6]; Urochloa decumbens, 480 h, 16 g ai/ha, read-out: observed % activity 20 DAT): 55%
- pest or weed control at 24 g/ha ([6]; Urochloa decumbens, 480 h, 24 g ai/ha, read-out: observed % activity 20 DAT): 95%
- observed % activity 20 DAT ([6]; 12 g ai/ha): 30%
- inhibition at 6 g/ha [7, 21]: 80%
- inhibition at 24 g/ha [7, 20]: 95%
- pest or weed control at 6 g/ha [7, 22]: 70%
- pest or weed control at 8 g/ha [7, 23]: 70%
- pest or weed control at 12 g/ha [7, 17]: 75%
- pest or weed control at 16 g/ha ([7]; 16 g ai/ha, read-out: observed % activity 20 DAT): 75%
- pest or weed control at 24 g/ha [7, 18]: 95%
- inhibition at 12.5 g/ha [7, 26]: 40%
- inhibition at 25 g/ha [7, 26]: 55%
- inhibition at 12.5 g/ha [7, 25]: 40%
- inhibition at 25 g/ha [7, 25]: 55%
- pest or weed control at 24 g/ha [8]: 10%
- observed % activity 20 DAT [9]: 15%
- pest or weed control at 12 g/ha [10]: 90%
- pest or weed control at 12 g/ha ([11]; 12 g ai/ha): 40%
- pest or weed control at 24 g/ha ([11]; 24 g ai/ha): 70%
- inhibition at 6 g/ha ([12]; Avena fatua, 480 h, 6 g ai/ha, 20 DAT, read-out: observed % activity): 0%
- inhibition at 24 g/ha ([12]; Avena fatua, 480 h, 24 g ai/ha, 20 DAT, read-out: observed % activity): 60%
- observed % activity 20 DAT ([12]; 8 g ai/ha): 40%
- observed % activity 20 DAT ([12]; 12 g ai/ha): 20% and 30%
- observed % activity 20 DAT ([12]; 16 g ai/ha): 60% and 35%
- observed % activity 20 DAT ([12]; 24 g ai/ha): 70%
- pest or weed control at 12 g/ha [13, 17]: 20%
- pest or weed control at 24 g/ha [13, 18]: 20%
- inhibition at 12 g/ha [13, 19]: 0%
- inhibition at 12.5 g/ha ([13]; POLCO, 20 DAT, read-out: observed % activity 20 DAT): 0%
- inhibition at 12.5 g/ha [13, 25]: 0%
- pest or weed control at 12 g/ha [14, 17]: 50%
- pest or weed control at 24 g/ha [14, 18]: 80%
- inhibition at 6 g/ha [14, 21]: 0%
- inhibition at 12 g/ha [14, 19]: 85%
- inhibition at 25 g/ha ([14]; use rate 25 g ai/ha, read-out: observed % activity 20 DAT): 0%
- inhibition at 12 g/ha [15, 19]: 95%
- inhibition at 24 g/ha [15, 20]: 98%
- pest or weed control at 6 g/ha [15, 22]: 80%
- pest or weed control at 12 g/ha [15, 17]: 95%
- pest or weed control at 24 g/ha [15, 18]: 98%
- inhibition at 12.5 g/ha [15, 27]: 20%
- inhibition at 25 g/ha [15, 27]: 20%
- inhibition at 12.5 g/ha [15, 25]: 20%
- inhibition at 25 g/ha [15, 25]: 20%
- pest or weed control at 8 g/ha ([16]; 8 g ai/ha): 70%
- inhibition at 12.5 g/ha ([16]; ECHCG, 20 DAT): 50%
- inhibition at 25 g/ha ([16]; ECHCG, use rate 25 g ai/ha, 20 DAT): 90%
- inhibition at 12.5 g/ha [16]: 50%
